Test results: patent US7531557B2, “Diaryl ethers as opioid receptor antagonists” (Eli Lilly and Company, priority 2002, dated 2009)

Experiments:
Diet Induced Obese Rat = assay: Indirect calorimetry assay (food consumption, energy balance); assay type: in vivo; conditions: for Energy Balance Diet Induced Obese Rat: test dose 3 mg/kg, energy balance = caloric intake minus utilization
Method: Indirect Calorimetry Assay
Twenty-four-hour energy expenditure (EE) and respiratory quotient (RQ) were measured by indirect calorimetry using an open circuit calorimetry system (Oxymax, Columbus Instruments Int. Corp., USA). RQ is the ratio of the volume of CO2 produced (VCO2) to the volume of O2 consumed (VO2). EE was calculated as the product of calorific value of oxygen (CV) and VO2 per kilogram of body weight, where CV=3.815+1.232 (RQ). Total calories expended were calculated to determine daily fuel utilization. To calculate the proportion of protein, fat and carbohydrate that is used during that 24-hour period, we used Flatt's proposal (see, Flatt J P 1991 Assessment of daily and cumulative carbohydrate and fat balances in mice. J Nutr Biochem 2:193-202.) and formulae as well as other derived constants (see Elia M, Livesey G 1992 Energy expenditure and fuel selection in biological systems: the theory and practice of calculations based on indirect calorimetry and tracer methods. World Rev Nutr Diet 70:68-131.). Food consumption over the 24-hour period was also measured. […] Results obtained for a sample of compounds of the invention with the indirect calorimetry assay are shown below in Table 4.

Rat = assay: Acute feeding assay (Rat Obesity assay); assay type: in vivo
Description: Acute Feeding Assay (Rat Obesity Assay)
The efficacy of compounds of the present invention has been further verified by the results of a Rat Obesity assay shown in Table 3.

[1] = test system: mu, delta and kappa receptors in rat striatum/nucleus accumbens; assay: Ex-vivo receptor binding of 3H-diprenorphine in rat brain after oral dosing; conditions: 7 mg/kg p.o., 6 hours after administration, striatum/nucleus accumbens homogenate, versus vehicle
[2] = test system: dietary induced obese rats; conditions: cited from earlier work
[3] = former clinical trial candidate, development discontinued; cited from earlier work

| Compound | Inhibition of Feeding Diet Induced Obese Rat Minimum Effective Dose (MED) (Diet Induced Obese Rat; p.o., lowest dose with food consumption over 24 hours significantly different from vehicle) [mg/kg] | Energy Balance Diet Induced Obese Rat (Diet Induced Obese Rat; p.o.) [kcal/kg/day] | Doses in ug/kg to achieve effective inhibition (Rat) [µg/kg] | melting point [°C] | minimal effective dose (Diet Induced Obese Rat; Rattus norvegicus, po, lowest dose with food consumption over 24 hours significantly different from vehicle, read-out: Inhibition of Feeding Diet Induced Obese Rat Minimum Effective Dose (MED)) [mg/kg] | Ex Vivo Binding [3H]-Diprenorphine % Inhibition of at 6 hours 7 mg/kg of test compound [1] [%] | energy balance and total body mass ([2]; chronic treatment, dietary induced obese rats fed a high fat diet) | food intake ([2]; oral administration, acute and chronic treatment in rats) | human oral bioavailability [3] |
| --- | --- | --- | --- | --- | --- | --- | --- | --- | --- |
| 4-(4-Pentylaminomethyl-phenoxy)-benzamide [Example 290] | 3 | -65 | 3 |  |  |  |  |  |  |
| CC(C)CCN(Cc1ccc(Oc2ccc(C(N)=O)cn2)c(F)c1)CC1CCCCC1 [Example 671, 6-[4-((3-Methyl-butyl), cyclohexylmethylaminomethyl)-2-fluorophenoxy]nicotinonamide] |  |  |  | 110 to 111 |  |  |  |  |  |
| C[C@H]1CN(CC[C@H](O)C2CCCCC2)CC[C@@]1(C)c1cccc(O)c1 [LY255582, reference compound] |  | -36 |  |  | 1 | >40 | sustained negative energy balance leading to a decrease in total body mass | robust reductions in food intake | lack of satisfactory human oral bioavailability |
